Where two headings read alike, the source gives them in different places.
B1: Pept-In TEM3.2 (peptide)
peptide: Ac-RLTAFLHNRRPRLTAFLRQRR-NH2
notes: designed tandem of the TEM version (LTAFLHN) and the SHV version (LTAFLRQ) of APR 3, each flanked by Arg, with a Pro linker; also called peptide TEM3.2; source: synthetic peptide (Genscript, >90% purity; also in-house solid-phase synthesis)

Legend:
TEM-1 = TEM-1 (Escherichia coli, UniProt P62593); format: biochemical, E. coli; parameters: His-tag (N); TEV cleavage site (N); made in house; host or cells: E. coli BL21 (DE3); settings: static light scattering during temperature ramp, inhibitor titration
Source text: Then, we performed a thermal denaturation whilst simultaneously monitoring the intrinsic fluorescence as a measure of the folding status of the molecule (Fig. 1D and Supplementary Fig. 2D) and the static light scattering as a measure of aggregation (Fig. 1E and Supplementary Fig. 2E).
D Heat denaturation of TEM-1 monitored by intrinsic fluorescence plotted as the BaryCentric Mean (BCM) of the fluorescence emission spectrum in the presence (red) and absence (blue) of tazobactam. […] E Temperature-dependent evolution of the Right-Angle Light Scattering (RALS) intensity measured simultaneously with the data in D to monitor protein aggregation. […] F Same data as in E, but showing a dose-titration of the beta-lactamase inhibitor tazobactam.

E. coli TEM104 = tested on: E. coli TEM104
Description: (§1) To quantify the synergy between these four peptides and penicillin G, we performed a so-called checkerboard assay, which allows us to compare the activity of two test compounds co-incubated (here peptide and a beta-lactam antibiotic), to their individual activities in isolation. […] We evaluated the synergy of the peptides with penicillin G in clinical E. coli isolates carrying the TEM (Fig. 3D) or SHV enzymes (Fig. 3E). […] The list of strains included some that harbored only TEM or SHV, but others contained additional Ambler Class A (CTX-M or OXA) or Class B (VIM and NDM) beta-lactamases.
(§2) For the analysis of synergy between the peptides and other antibiotics, a checkerboard assay was performed. Based on the MICs of the selected peptides, a checkerboard assay was designed to define their FICIs (Fractional Inhibitory Concentration Index) in combinations against different clinical isolates[53],[54]. Briefly, a total volume of 100 μL of Mueller–Hinton broth was distributed into each well of the 96-well plates. The first compound (peptide) of the combination was serially diluted vertically (128, 64, 32, 16, 8, 4, 2, 0 μg/mL) while the other drug (Beta-lactam or Kanamycin) was diluted horizontally in a 96-well plate (from 3200 to 3 μg/ mL). The total volume of each microtiter well was inoculated with 100 μL of MHB containing 1 × 10^6 CFU/mL bacteria. The plates were incubated at 37 °C for 24 h under aerobic conditions without shaking. Calculation of the FICI is used to analyze the results of the checkerboard assay by estimating the degree of synergistic effect. FICI is calculated as the sum of the individual fractional inhibitory concentrations (FICs) for each drug (where MIC A and MIC B denote the MIC of each drug alone, and MIC AA+B and MIC BA+B denote the concentrations of A and B in the drug combination). FICI = (MIC AA+B/MIC A) + (MIC BA+B/MIC B). With FICI ≤ 0.5, the combination of antibiotics is considered as a synergistic effect, 0.5 < FICI ≤ 1 indicates additivity, FICI > 1 indicates indifference.

E. coli NDM-5b = settings: for synergy with penicillin (in words): checkerboard, strain containing NDM5b; for FICi values: E. coli NDM-5b
Source text: (§3) As we wondered about the generality of our peptide design approach, we set out to design a peptide to inactivate a structurally unrelated beta-lactamase. To this end, we turned to the Ambler class B beta-lactamase NDM-1 that confers resistance to many beta-lactam antibiotics, including carbapenems, and strains carrying this enzyme were soon dubbed ‘superbugs’ that are only partially sensitive to colistin and tigecycline. This enzyme was first isolated from a patient in 2008[41]. By 2010 it could be detected in clinical isolates throughout the UK and India[42], and by 2015, in over 70 countries worldwide.
as §2

E. coli NDM-5a = settings: for FICi values: E. coli NDM-5a; for synergy with penicillin (in words): checkerboard, strain containing NDM5a
Source text: as §3, §2

E. coli SHV11 = assay: Checkerboard assay (FICI); format: cell-based, Escherichia coli; settings: strain containing SHV-11, FICI below 0.5 = synergy
Description: as §1
For the analysis of synergy between the peptides and other antibiotics, a checkerboard assay was performed. Based on the MICs of the selected peptides, a checkerboard assay was designed to define their FICIs (Fractional Inhibitory Concentration Index) in combinations against different clinical isolates[53],[54]. Briefly, a total volume of 100 μL of Mueller–Hinton broth was distributed into each well of the 96-well plates. […] FICI is calculated as the sum of the individual fractional inhibitory concentrations (FICs) for each drug (where MIC A and MIC B denote the MIC of each drug alone, and MIC AA+B and MIC BA+B denote the concentrations of A and B in the drug combination). […]

E. coli strain UZ_TEM104 = settings: broth microdilution, MHB, overnight 37 °C, peptide alone
Source text: Pept-Ins consist of a tandem repeat of the APR, each instance flanked by charged amino acids for solubility and separated by a short peptide linker[20],[21],[24] (Fig. 3A). Previous work has shown that good bacterial uptake can be achieved using one positively charged arginine residue on the N-terminal side of each APR in the tandem and two arginine residues on the C-terminal side[20],[21]. […] As before, we employed a single Pro residue as a linker between the APRs and focused on an APR length of seven, extending shorter APRs to this length by incorporating flanking amino acids unless they were obvious aggregation breakers (Arg, Lys, Asp, Glu or Pro, see Table 1).
Determination of MIC values was performed using the broth microdilution method according to the EUCAST guideline, which was performed in 96-well polystyrene flat-bottom microtiter plates (BD Biosciences). Briefly, a single colony was inoculated into 5 mL Difco™ Mueller–Hinton Broth (BD Biosciences Ref 275730) and grown to the end-exponential growth phase in a shaking incubator at 37 °C. Cultures were subsequently diluted to a MacFarland (0.5 optical density) to reach 10^6 CFU/mL in fresh MHB medium. 50 µl of different concentrations of peptides ranging from 128 to 2 µg/mL were serially diluted to the sterile 96-well plate in MHB. 50 µL of the diluted bacteria in MHB were next pipetted into 96-well plates to reach the final volume of 100 µL. The bacteria grown with the maximum concentration of carrier and medium were considered positive and negative controls, respectively. The plates were statically incubated overnight at 37 °C to allow bacterial growth. OD was measured at 590 nm using a multipurpose ultraviolet–visible plate reader, and the absorbance of the bacterial growth was measured using an absorbance reader.

[1] = biological target: the molecule itself; assay: Thioflavin-T and pFTAA fluorescence kinetics + DLS + transmission electron microscopy; 50 μM TEM3.2 with polyphosphate (PolyP); electron microscopy after 24 h incubation at RT; the peptide is called soluble in buffer alone

TEM-1, sequence (P62593 24-286 limits assumed): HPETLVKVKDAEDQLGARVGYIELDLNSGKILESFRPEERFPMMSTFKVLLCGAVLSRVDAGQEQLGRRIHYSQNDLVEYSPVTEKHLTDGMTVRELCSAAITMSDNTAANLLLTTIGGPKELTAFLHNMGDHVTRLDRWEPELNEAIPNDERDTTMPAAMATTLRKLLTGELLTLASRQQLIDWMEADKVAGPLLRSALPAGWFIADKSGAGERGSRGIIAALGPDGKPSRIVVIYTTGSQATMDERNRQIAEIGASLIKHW

Molecule	FICi values (E. coli TEM104; TEM104, Replicate1)	FICi values (E. coli TEM104; TEM104, Replicate2)	FICi values (E. coli TEM104; TEM104, Replicate3)	FICi values (E. coli TEM104; TEM104, Replicate4)	FICi values (E. coli TEM104; TEM104, Replicate5)	synergy with penicillin (in words) (E. coli NDM-5b)	FICi values (E. coli NDM-5a; Replicate1)	FICi values (E. coli NDM-5a; Replicate2)	FICi values (E. coli NDM-5a; Replicate3)	FICi values (E. coli NDM-5a; Replicate4)	FICi values (E. coli NDM-5a; Replicate5)	synergy with penicillin (in words) (E. coli NDM-5a)	also measured
O=C(O)C[C@@H]1CC[C@H](NC(=O)Cc2cccs2)B(O)O1 [vaborbactam]													effect on aggregation of TEM-1, dose-response (in words) (TEM-1): reduce the aggregation of the enzyme in a dose-responsive manner
Ac-RLAAALMLRRPRAQILNWIRR-NH2 [NDM1-2]	0.75	1	0.5	1	0.72	show synergy	0.375	0.36	0.25	0.159	0.25	show synergy	
Ac-RSVIIWSLGRRPRSVIIWSLGRR-NH2 [BGAL]	1	1	1	1	1.5	neither showed synergy on any of the strains used	2	2	2	1.5	2	neither showed synergy on any of the strains used	synergy with penicillin G (in words) (E. coli SHV11): no synergy with penicillin G; MIC peptide (E. coli strain UZ_TEM104): > 100 µg/mL; FICi values (E. coli NDM-5b; Replicate1): 2; FICi values (E. coli NDM-5b; Replicate2): 1; FICi values (E. coli NDM-5b; Replicate3): 2; FICi values (E. coli NDM-5b; Replicate4): 2; FICi values (E. coli NDM-5b; Replicate5): 1.5
Ac-RTAQILNWRRPRTAQILNWRR-NH2 [NDM1-1]	0.5	0.78	0.72		0.75	show synergy	0.37	0.38	0.21	0.195	0.25	show synergy	
B1													binding result [1]: binds
